Laboratory results: BindingDB's records for patent US20250170104 (Helmholtz-Zentrum Fur Infektionsforschung, 2025)

Target: Elastase (Pseudomonas aeruginosa (strain ATCC 15692 / DSM 22644 / CIP 104116 / JCM 14847 / LMG 12228 / 1C / PRS 101 / PAO1), UniProt P14756)
Assay: In Vitro LasB Activity Assay
Protocol: Fluorescence intensity was measured for 60 min at 37° C. in black 384-well microtiter plates (Greiner BioOne, Kremsm nster, Austria) using a CLARIOstar microplate reader (BMG Labtech, Ortenberg, Germany) with an excitation wavelength of […] and an emission wavelength of 415±20 nm. The assay was performed in a final volume of 50 μL of assay buffer (50 mM Tris, pH 7.2, 2.5 mM CaCl2), 0.075% Pluronic F-127, 5% DMSO) containing LasB at a final concentration of […] 0.3 nM and the substrate at 150 μM. Before substrate addition, compounds were preincubated with the enzyme at 37° C. for 15 min. Experiments were performed in duplicates and repeated for at least two times. Blank controls without enzyme were performed. After blank subtraction, the slope of samples containing inhibitors (v) was divided by the slope of a simultaneously started uninhibited enzymatic reaction (v0).

Sequence of Elastase (P14756 whole entry): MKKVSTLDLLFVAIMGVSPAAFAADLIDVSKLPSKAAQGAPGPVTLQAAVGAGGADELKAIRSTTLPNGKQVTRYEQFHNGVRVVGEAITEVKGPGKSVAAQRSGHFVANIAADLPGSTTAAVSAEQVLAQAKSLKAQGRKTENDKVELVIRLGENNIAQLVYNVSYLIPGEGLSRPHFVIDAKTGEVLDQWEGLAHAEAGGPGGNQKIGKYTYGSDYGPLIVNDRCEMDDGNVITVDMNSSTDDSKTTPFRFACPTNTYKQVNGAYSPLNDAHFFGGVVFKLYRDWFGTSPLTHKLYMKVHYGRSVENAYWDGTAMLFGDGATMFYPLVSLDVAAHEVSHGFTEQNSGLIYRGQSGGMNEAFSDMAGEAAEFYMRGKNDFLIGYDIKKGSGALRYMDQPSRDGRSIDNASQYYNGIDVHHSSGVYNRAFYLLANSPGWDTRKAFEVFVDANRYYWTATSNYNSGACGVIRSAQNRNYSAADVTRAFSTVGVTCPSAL

## CC(C)CC(C(=O)NO)C(=O)Nc1ccc(Cn2cc(CNS(=O)(=O)c3ccc(C(=O)O)cc3)nn2)cc1 (stereo unspecified) [US20250170104, Compound 209]
  IC50: 0.0446 µM
